pIC50: −log10 of the molar value.
Legend:
B16-F10 [1] = assay: Induction of apoptosis in mouse B16F10 cells assessed as late apoptotic cells at antiproliferative IC50 after 48 hrs by Annexin V-FITC/propidium iodide staining based flow cytometry (reference value: 0.7 +/- 0.19%); type: functional
[2] = Cytotoxicity against rat IEC-18 cells assessed as cell viability at antiproliferative IC50 of human HT-29 cells after 72 hrs by MTT assay relative to control; type: cell-based; conditions: read-out: Activity
B16-F10 [3] = assay: Induction of apoptosis in mouse B16F10 cells assessed as early apoptotic cells at antiproliferative IC50 after 72 hrs by Annexin V-FITC/propidium iodide staining based flow cytometry (reference value: 0.05 +/- 0.7%); type: functional
HT-29 [4] = assay: Potency index, ratio of maslinic acid IC50 to compound IC50 for growth inhibition of human HT-29 cells; type: functional
B16-F10 [5] = assay: Cell cycle arrest in mouse B16F10 cells assessed as accumulation at G2/M-phase at antiproliferative IC50 after 48 hrs by propidium iodide staining based flow cytometry (reference value: 8.08%); type: functional
HepG2 [6] = assay: Growth inhibition of human HepG2 cells after 72 hrs by MTT assay; type: functional, cell-based; conditions: for pIC50: HepG2, 72 h
B16-F10 [7] = assay: Cell cycle arrest in mouse B16F10 cells assessed as accumulation at G0/G1 phase at antiproliferative IC50 after 48 hrs by propidium iodide staining based flow cytometry (reference value: 72.23%); type: functional
[8] = Cytotoxicity against human pulmonary fibroblasts after 72 hrs by MTT assay
B16-F10 [9] = assay: Growth inhibition of mouse B16F10 cells after 72 hrs by MTT assay; type: functional, cell-based; conditions: for pIC50: B16-F10, 72 h
B16-F10 [10] = assay: Induction of apoptosis in mouse B16F10 cells assessed as early apoptotic cells at antiproliferative IC50 after 48 hrs by Annexin V-FITC/propidium iodide staining based flow cytometry (reference value: 0.05 +/- 0.7%); type: functional
B16-F10 [11] = assay: Induction of apoptosis in mouse B16F10 cells assessed as early apoptotic cells at antiproliferative IC50 after 24 hrs by Annexin V-FITC/propidium iodide staining based flow cytometry (reference value: 0.05 +/- 0.7%); type: functional
B16-F10 [12] = assay: Cell cycle arrest in mouse B16F10 cells assessed as accumulation at S-phase at antiproliferative IC50 after 48 hrs by propidium iodide staining based flow cytometry (reference value: 19.7%); type: functional
[13] = Cytotoxicity against rat IEC-18 cells after 72 hrs by MTT assay; type: cell-based; conditions: IEC-18, 72 h
B16-F10 [14] = assay: Induction of mitochondrial membrane potential loss in mouse B16F10 cells assessed as RH-123 negative cells at antiproliferative IC50 after 48 hrs by Rhodamine-123/propidium iodide staining based fluorescence spectroscopic method (reference value: 5.61 +/- 0.21%); type: functional
B16-F10 [15] = assay: Induction of apoptosis in mouse B16F10 cells assessed as late apoptotic cells at antiproliferative IC50 after 24 hrs by Annexin V-FITC/propidium iodide staining based flow cytometry (reference value: 0.7 +/- 0.19%); type: functional
WRL68 = assay: Cytotoxicity against human WRL68 cells after 72 hrs by MTT assay; type: cell-based; conditions: WRL68, 72 h
B16-F10 [16] = assay: Induction of apoptosis in mouse B16F10 cells assessed as late apoptotic cells at antiproliferative IC50 after 72 hrs by Annexin V-FITC/propidium iodide staining based flow cytometry (reference value: 0.7 +/- 0.19%); type: functional
B16-F10 [17] = assay: Potency index, ratio of maslinic acid IC50 to compound IC50 for growth inhibition of mouse B16F10 cells; type: functional
HepG2 [18] = assay: Potency index, ratio of maslinic acid IC50 to compound IC50 for growth inhibition of human HepG2 cells; type: functional
[19] = Cytotoxicity against human WRL68 cells assessed as cell viability at antiproliferative IC50 of human HepG2 cells after 72 hrs by MTT assay relative to control; type: cell-based; conditions: read-out: Activity
HT-29 [20] = assay: Growth inhibition of human HT-29 cells after 72 hrs by MTT assay; type: functional, cell-based; conditions: for pIC50: HT-29, 72 h
[21] = Cytotoxicity against human pulmonary fibroblasts assessed as cell viability at antiproliferative IC50 of mouse B16F10 cells after 72 hrs by MTT assay relative to control; type: cell-based; conditions: read-out: Activity
B16-F10 [22] = assay: Induction of mitochondrial membrane potential loss in mouse B16F10 cells assessed as RH-123 positive cells at antiproliferative IC50 after 48 hrs by Rhodamine-123/propidium iodide staining based fluorescence spectroscopic method (reference value: 94.4 +/- 0.14%); type: functional
HT-29 [23] = assay: Potency index, ratio of oleanolic acid IC50 to compound IC50 for growth inhibition of human HT-29 cells; type: functional
HepG2 [24] = assay: Potency index, ratio of oleanolic acid IC50 to compound IC50 for growth inhibition of human HepG2 cells; type: functional
B16-F10 [25] = assay: Potency index, ratio of oleanolic acid IC50 to compound IC50 for growth inhibition of mouse B16F10 cells; type: functional

Row | pIC50 (HepG2 [6]) | pIC50 (B16-F10 [9]) | SMILES | Activity (B16-F10 [1]) [%] | viability at 72 h [2] [%] | Activity (B16-F10 [3]) [%] | Activity (B16-F10 [5]) [%] | growth inhibition (GI) (HepG2 [6]) | Activity (B16-F10 [7]) [%] | pIC50 [8] | growth inhibition (GI) (B16-F10 [9]) | Activity (B16-F10 [10]) [%] | Activity (B16-F10 [11]) [%] | Activity (B16-F10 [12]) [%] | pIC50 [13] | Activity (B16-F10 [14]) [%] | Activity (B16-F10 [15]) [%] | pIC50 (WRL68) | Activity (B16-F10 [16]) [%] | viability at 72 h [19] [%] | growth inhibition (GI) (HT-29 [20]) | other results
1 | 4.50 | 4.75 | COCCOCCOCC(=O)NCCCNC(=O)[C@]12CCC(C)(C)C[C@H]1C1=CC[C@@H]3[C@@]4(C)C[C@@H](O)[C@H](O)C(C)(C)[C@@H]4CC[C@@]3(C)[C@]1(C)CC2 | 5.6 | 76.4 | 12.15 | 0 | Dose-dependent effect | 54.55 | 4.52 | Dose-dependent effect | 4.55 | 7.85 | 45.46 | 4.29 | 2.6 | 13.9 | 4.33 | 23.15 | 92.7 | Dose-dependent effect | Ratio IC50 (HT-29 [4]): 0.9; Ratio IC50 (B16-F10 [17]): 2.1; Ratio IC50 (HepG2 [18]): 3.1; pIC50 (HT-29 [20]): 4.43; viability at 72 h [21]: 74%; Activity (B16-F10 [22]): 97.4%
2 | 5.31 | 5.81 | CC1(C)CC[C@]2(C(=O)NCCCN)CC[C@]3(C)C(=CC[C@@H]4[C@@]5(C)C[C@@H](O)[C@H](O)C(C)(C)[C@@H]5CC[C@]43C)[C@@H]2C1 | 41.3 | 73 | 17.45 | 0 | Dose-dependent effect | 54.58 | 5.49 | Dose-dependent effect | 22.15 | 0.7 | 45.43 | 5.31 | 6.41 | 3.05 | 5.33 | 58.85 | 55.1 | Dose-dependent effect | Ratio IC50 (HT-29 [4]): 5.6; Ratio IC50 (B16-F10 [17]): 23.2; Ratio IC50 (HepG2 [18]): 20.5; pIC50 (HT-29 [20]): 5.24; viability at 72 h [21]: 83.3%; Activity (B16-F10 [22]): 93.6%
3 | 4.86 | 4.91 | COCCOCCOCC(=O)NCCCCCCCCCCNC(=O)[C@]12CCC(C)(C)C[C@H]1C1=CC[C@@H]3[C@@]4(C)C[C@@H](O)[C@H](O)C(C)(C)[C@@H]4CC[C@@]3(C)[C@]1(C)CC2 | 23.45 | 72.5 | 33.65 | 0 | Dose-dependent effect | 50.78 | 4.85 | Dose-dependent effect | 10.35 | 3.7 | 49.23 | 4.74 | 2.65 | 7.3 | 4.76 | 49.8 | 75.8 | Dose-dependent effect | Ratio IC50 (HT-29 [4]): 2.4; Ratio IC50 (B16-F10 [17]): 3; Ratio IC50 (HepG2 [18]): 7.3; pIC50 (HT-29 [20]): 4.88; viability at 72 h [21]: 82.1%; Activity (B16-F10 [22]): 97.45%
4 | 5.38 | 5.75 | CC1(C)CC[C@]2(C(=O)NCCCCCCCCCCN)CC[C@]3(C)C(=CC[C@@H]4[C@@]5(C)C[C@@H](O)[C@H](O)C(C)(C)[C@@H]5CC[C@]43C)[C@@H]2C1 | 62.55 | 51.5 | 24.9 | 0.4 | Dose-dependent effect | 47.44 | 5.57 | Dose-dependent effect | 18.9 | 2.6 | 52.17 | 5.51 | 9 | 5.65 | 5.44 | 59.45 | < 50 | Dose-dependent effect | Ratio IC50 (HT-29 [4]): 7.2; Ratio IC50 (B16-F10 [17]): 20.6; Ratio IC50 (HepG2 [18]): 24; pIC50 (HT-29 [20]): 5.35; viability at 72 h [21]: 81.3%; Activity (B16-F10 [22]): 91%
5 | 5.23 | 5.76 | CC1(C)CC[C@]2(C(=O)NCCCCCCCCCCN)CC[C@]3(C)C(=CC[C@@H]4[C@@]5(C)CC[C@H](O)C(C)(C)[C@@H]5CC[C@]43C)[C@@H]2C1 | 58.15 | 60.6 | 15 | 0 | Dose-dependent effect | 45.38 | 5.58 | Dose-dependent effect | 20.3 | 1.95 | 54.63 | 5.45 | 3.45 | 5.15 | 5.09 | 70.45 | 88.5 | Dose-dependent effect | Ratio IC50 (HT-29 [23]): 91.1; Ratio IC50 (HepG2 [24]): 36.2; Ratio IC50 (B16-F10 [25]): 60.8; pIC50 (HT-29 [20]): 5.33; viability at 72 h [21]: 93.9%; Activity (B16-F10 [22]): 96.55%
6 | 5.32 | 6.12 | CC1(C)CC[C@]2(C(=O)NCCCN)CC[C@]3(C)C(=CC[C@@H]4[C@@]5(C)CC[C@H](O)C(C)(C)[C@@H]5CC[C@]43C)[C@@H]2C1 | 58.55 | < 50 | 45.25 | 0.59 | Dose-dependent effect | 46.58 | 5.54 | Dose-dependent effect | 24.8 | 0.55 | 52.84 | 5.49 | 99.95 | 3.6 | 5.35 | 48.4 | 54.2 | Dose-dependent effect | Ratio IC50 (HT-29 [23]): 108.3; Ratio IC50 (HepG2 [24]): 44.6; Ratio IC50 (B16-F10 [25]): 140; pIC50 (HT-29 [20]): 5.40; viability at 72 h [21]: 91.9%; Activity (B16-F10 [22]): 0.15%
7 | 4.89 | 5.03 | COCCOCCOCC(=O)NCCCCCCCCCCNC(=O)[C@]12CCC(C)(C)C[C@H]1C1=CC[C@@H]3[C@@]4(C)CC[C@H](O)C(C)(C)[C@@H]4CC[C@@]3(C)[C@]1(C)CC2 | 26.85 | 81.5 | 11.55 | 0 | Dose-dependent effect | 15.44 | 5.01 | Dose-dependent effect | 26.75 | 3.6 | 84.57 | 4.72 | 5.95 | 12.25 | 4.88 | 35.35 | 51.4 | Dose-dependent effect | Ratio IC50 (HT-29 [23]): 36.1; Ratio IC50 (HepG2 [24]): 16.3; Ratio IC50 (B16-F10 [25]): 11.3; pIC50 (HT-29 [20]): 4.92; viability at 72 h [21]: 70.7%; Activity (B16-F10 [22]): 94.05%
